Series [1] deals with SSTR4. Conditions: SSTR4 (all five SSTRs); cited from earlier work.
In series [2] the test system is SSTR2. Conditions: SSTR2 (all five SSTRs); cited from earlier work.
Series [3] concerns SSTR1. Conditions: SSTR1 (all five SSTRs); cited from earlier work.
The test system of series [4] is SSTR3. The following applies: SSTR3 (all five SSTRs); cited from earlier work.
Series [5] deals with SSTR5. Conditions: SSTR5 (all five SSTRs); cited from earlier work.
The conditions of series [6]: cited from earlier work.
Series [7] concerns the target T1, SSTR2 Y302A (Homo sapiens, UniProt P30874, Y302A).
T1 construct: Flag; expressed in transfected cells; host or cells: 293 T cells (pcDNA3.1, co-transfected with Gqi9)
In words: Intracellular Ca2+ mobilization signaling assay, SSTR2 Y302A mutant. The class given is cell-based. Conditions: read-out: Ca2+ Emax. As for the experimental part:
(§1) SSTR2 (wild-type or mutant) and Gqi9 cloned in pcDNA3.1 vector were co-transfected into 293 T cells at a ratio of 2:1 with Lipo3000. After 24 h, the cells were plated in poly-D-lysine-coated 96-well plates. After cells were washed with calcium buffer (HBSS buffer supplemented with 0.1% BSA, 2.5 mM probenecid, pH 7.4), Fluo4 AM was added and incubated for 50 min in a 37 °C incubator. After washing with calcium buffer, 50 μL calcium buffer was added to each well. Fluorescence intensities were recorded simultaneously from all the wells by a FLIPR. Plates were illuminated at 488 nm and fluorescence emission was recorded at 540 nm. The fluorescence intensity was measured at 1-s intervals for 410 s. This procedure was followed by the addition of 50 μL agonist. Data were normalized to the baseline response of the ligand. Data were analyzed using nonlinear regression in GraphPad Prism software 9.0.

The target of series [8] is T2, SSTR2-Q102S (Homo sapiens, UniProt P30874, Q102S).
T2 construct: Flag; expressed in transfected cells; host or cells: 293 T cells (pcDNA3.1, co-transfected with Gqi9)
In words: Intracellular Ca2+ mobilization signaling assay, SSTR2 Q102S mutant. Conditions: for Emax: read-out: Ca2+ Emax. The series is classed as cell-based. As for the experimental part:
as §1

The target of series [9] is T3, SSTR2 Q102A (Homo sapiens, UniProt P30874, Q102A).
T3 construct: Flag; expressed in transfected cells; host or cells: 293 T cells (pcDNA3.1, co-transfected with Gqi9)
Nature of the series: Intracellular Ca2+ mobilization signaling assay, SSTR2 Q102A mutant. The series is classed as cell-based. Conditions: for Emax: read-out: Ca2+ Emax. As for the experimental part: as §1

For series [10], the target named is T4, SSTR2 F272A (Homo sapiens, UniProt P30874, F272A).
T4 construct: Flag; expressed in transfected cells; host or cells: 293 T cells (pcDNA3.1, co-transfected with Gqi9)
Nature of the series: Intracellular Ca2+ mobilization signaling assay, SSTR2 F272A mutant. The following applies: percentage of wild-type SSTR2 response. The series is classed as cell-based. The method, then:
as §1

For series [11], the target named is T5, SSTR2 F208A (Homo sapiens, UniProt P30874, F208A).
T5 construct: Flag; expressed in transfected cells; host or cells: 293 T cells (pcDNA3.1, co-transfected with Gqi9)
Nature of the series: Intracellular Ca2+ mobilization signaling assay, SSTR2 F208A mutant. The class given is cell-based. The following applies: read-out: Ca2+ Emax. The method, then:
as §1

In series [12] the target is T6, SSTR2 D122A (Homo sapiens, UniProt P30874, D122A).
T6 construct: Flag; expressed in transfected cells; host or cells: 293 T cells (pcDNA3.1, co-transfected with Gqi9)
Nature of the series: Intracellular Ca2+ mobilization signaling assay, SSTR2 D122A mutant. The class given is cell-based. Conditions: read-out: Ca2+ Emax. As for the experimental part:
as §1

The target in series [13] is T7, SSTR2-Q126A (Homo sapiens, UniProt P30874, Q126A).
T7 construct: Flag; expressed in transfected cells; host or cells: 293 T cells (pcDNA3.1, co-transfected with Gqi9)
Nature of the series: Intracellular Ca2+ mobilization signaling assay, SSTR2 Q126A mutant. The series is classed as cell-based. Conditions: read-out: Ca2+ Emax. The method, then: as §1

The target of series [14] is T8, SSTR2 F294S (Homo sapiens, UniProt P30874, F294S).
T8 construct: Flag; expressed in transfected cells; host or cells: 293 T cells (pcDNA3.1, co-transfected with Gqi9)
In words: Intracellular Ca2+ mobilization signaling assay, SSTR2 F294S mutant. The series is classed as cell-based. The following applies: read-out: Ca2+ Emax. As for the experimental part: as §1

The target of series [15] is T9, SSTR2 N276A (Homo sapiens, UniProt P30874, N276A).
T9 construct: Flag; expressed in transfected cells; host or cells: 293 T cells (pcDNA3.1, co-transfected with Gqi9)
In words: Intracellular Ca2+ mobilization signaling assay, SSTR2 N276A mutant. The class given is cell-based. The following applies: read-out: Ca2+ Emax. The method, then:
as §1

In series [16] the target is T10, SSTR2 (wild-type) (Homo sapiens, UniProt P30874).
T10 construct: Flag; expressed in transfected cells; host or cells: 293 T cells (pcDNA3.1, co-transfected with Gqi9)
Nature of the series: Intracellular Ca2+ mobilization signaling assay, wild-type SSTR2. The series is classed as cell-based. The method, then: as §1

Series [17] deals with SSTR2-Q126A (human) (UniProt P30874).
The target in series [18] is wild-type SSTR2 (pcDNA3.1, functional assays) (human) (UniProt P30874).
For series [19], the target named is SSTR2-Q102^2.63 substituted with alanine (human) (UniProt P30874).
Series [20] deals with T11, SSTR2(1-359)-Largebit (Homo sapiens, UniProt P30874).
T11 construct: SSTR2(1-359)-; Flag; expressed in transfected cells; host or cells: 293 T cells (pcDNA3.1, co-transfected with Gqi9)
In words: Intracellular Ca2+ mobilization signaling assay, SSTR2(1-359)-Largebit construct. The series is classed as cell-based. Conditions: maximal response as percentage of wild-type SSTR2 response. As for the experimental part:
as §1

The source of these data is article PMC9122944, “Structural insights into the activation of somatostatin receptor 2 by cyclic SST analogues” (Cell Discovery, 2022).

Like-named read-outs stand apart in the source and are kept apart here.

T3 sequence (P30874 whole entry Q102A): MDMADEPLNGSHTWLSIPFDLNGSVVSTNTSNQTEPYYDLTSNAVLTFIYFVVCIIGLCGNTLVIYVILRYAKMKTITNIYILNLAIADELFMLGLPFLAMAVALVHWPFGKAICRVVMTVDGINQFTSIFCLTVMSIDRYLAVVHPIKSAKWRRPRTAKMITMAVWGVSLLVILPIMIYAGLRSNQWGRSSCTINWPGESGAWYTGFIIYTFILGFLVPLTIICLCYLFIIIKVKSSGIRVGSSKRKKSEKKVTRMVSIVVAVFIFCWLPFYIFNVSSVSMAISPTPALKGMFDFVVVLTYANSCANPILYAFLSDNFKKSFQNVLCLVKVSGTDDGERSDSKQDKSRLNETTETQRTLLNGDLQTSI
T2 sequence (P30874 whole entry Q102S): as the sequence (P30874 whole entry Q102A) above, with A102S counted along it
T5 sequence (P30874 whole entry F208A): as the sequence (P30874 whole entry Q102A) above, with A102Q, F208A counted along it
T7 sequence (P30874 whole entry Q126A): as the sequence (P30874 whole entry Q102A) above, with A102Q, Q126A counted along it
T1 sequence (P30874 whole entry Y302A): as the sequence (P30874 whole entry Q102A) above, with A102Q, Y302A counted along it
T6 sequence (P30874 whole entry D122A): as the sequence (P30874 whole entry Q102A) above, with A102Q, D122A counted along it
T9 sequence (P30874 whole entry N276A): as the sequence (P30874 whole entry Q102A) above, with A102Q, N276A counted along it
SSTR2-Q126A (human), sequence (P30874 whole entry Q126A): as the sequence (P30874 whole entry Q102A) above, with A102Q, Q126A counted along it
SSTR2-Q102^2.63 substituted with alanine (human), sequence (P30874 whole entry Q102A): as the sequence (P30874 whole entry Q102A) above
T10 sequence (P30874 whole entry): as the sequence (P30874 whole entry Q102A) above, with A102Q counted along it
wild-type SSTR2 (pcDNA3.1, functional assays) (human), sequence (P30874 whole entry): as the sequence (P30874 whole entry Q102A) above, with A102Q counted along it
T8 sequence (P30874 whole entry F294S): as the sequence (P30874 whole entry Q102A) above, with A102Q, F294S counted along it
T11 sequence (P30874 1-359): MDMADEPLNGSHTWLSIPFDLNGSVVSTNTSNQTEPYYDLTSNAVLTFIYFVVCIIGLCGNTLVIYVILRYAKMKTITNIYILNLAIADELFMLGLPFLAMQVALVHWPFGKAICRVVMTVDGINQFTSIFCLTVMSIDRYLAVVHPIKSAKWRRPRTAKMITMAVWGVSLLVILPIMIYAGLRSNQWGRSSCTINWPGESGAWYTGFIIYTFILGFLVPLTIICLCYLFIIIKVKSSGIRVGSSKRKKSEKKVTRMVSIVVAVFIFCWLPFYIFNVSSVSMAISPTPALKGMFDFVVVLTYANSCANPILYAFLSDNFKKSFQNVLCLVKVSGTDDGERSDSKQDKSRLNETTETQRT
T4 sequence (P30874 whole entry F272A): as the sequence (P30874 whole entry Q102A) above, with A102Q, F272A counted along it

As to `C[C@H](N)C(=O)NCC(=O)N[C@H]1CSSC[C@@H](C(=O)O)NC(=O)[C@H](CO)NC(=O)[C@H]([C@@H](C)O)NC(=O)[C@H](Cc2ccccc2)NC(=O)[C@H]([C@@H](C)O)NC(=O)[C@H](CCCCN)NC(=O)[C@H](Cc2c[nH]c3ccccc23)NC(=O)[C@H](Cc2ccccc2)NC(=O)[C@H](Cc2ccccc2)NC(=O)[C@H](CC(N)=O)NC(=O)[C@H](CCCCN)NC1=O` [SST14], the binding affinity result in series [1], in [2], in [3], in series [4] and in series [5] was “high binding affinity” in each case.

Take `CC(C)[C@@H]1NC(=O)[C@H](CCCCN)NC(=O)[C@@H](Cc2c[nH]c3ccccc23)NC(=O)[C@H](Cc2ccc(O)cc2)NC(=O)[C@@H](NC(=O)[C@H](N)Cc2ccc3ccccc3c2)CSSC[C@@H](C(=O)N[C@H](C(N)=O)[C@@H](C)O)NC1=O` [Lanreotide]: the half-life in series [6] was 1 h. Besides, the Emax was found to be 14 ± 2.2% in [7]; 54.8 ± 1.6% in [8]; 56.1 ± 4.2% in series [9]; 12.4 ± 1.1% in series [10]; 27.9 ± 4% in [11]; 11.7 ± 4.3% in series [12]. The figures for the Emax in series [13], in [14] and in series [15] were 25.2 ± 1.8%, 11.4 ± 0.8% and 13.8 ± 1.6%, respectively. Moreover, the results for the EC50 in [8], in series [9] and in [16] were 501 nM, 398 nM and 50.1 nM, respectively. The “Effect of mutation on EC50” value in series [8] (SSTR2-Q102S versus wild-type SSTR2) is “highly attenuated EC50”.

With octreotide (peptide), the EC50 of Ca^2+ mobilization (293 T cells with Gqi9) in [17] was found to be 100 nM; in [18], 20 nM; in series [19], 1300 nM.

As to `C[C@@H](O)[C@@H]1NC(=O)[C@H](CCCCN)NC(=O)[C@@H](Cc2c[nH]c3ccccc23)NC(=O)[C@H](Cc2ccccc2)NC(=O)[C@@H](NC(=O)[C@H](N)Cc2ccccc2)CSSC[C@@H](C(=O)N[C@H](CO)[C@@H](C)O)NC1=O` [Octreotide], the half-life in series [6] is 2 h. The Emax in [7] (Y302A mutant, percentage of wild-type SSTR2 response) came to 13.7 ± 3.2%; in series [8] (Q102S mutant, percentage of wild-type SSTR2 response), 91.9 ± 6.5%; in series [9] (Q102A mutant, percentage of wild-type SSTR2 response), 104 ± 12.1%; in [11] (F208A mutant, percentage of wild-type SSTR2 response), 98.7 ± 6.9%; in series [12] (D122A mutant, percentage of wild-type SSTR2 response), 5.6 ± 0.5%; in [13] (Q126A mutant, percentage of wild-type SSTR2 response) it was 83.5 ± 5.9%. Also, the Emax amounted to 22.3 ± 5.4% in [15] (N276A mutant, percentage of wild-type SSTR2 response) and 82.6 ± 7.4% in series [20].
